The supplement of paper PMC5579334

Key:
HSC2 [1] = assay: relative IC50 (inflection point of fitted dose-response curve, CellTox-Green cytotoxicity, 72 h; top asymptote may be below 50%); higher = less potent
In short: (§1)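 MPNST cell lines and primary human Schwann cells were grown for 72 h at 37 °C in 384-well plates containing five 10-fold compound dilutions. CellTox-Green, added before seeding at a final 1:1000 dilution, gave fluorescence from DNA released by disrupted cells, and signals were scaled to vehicle and positive-control wells. Curves were fitted with a four-parameter logistic model. Drug sensitivity score and relative IC50 come from these fits, with IC50 censored at the top concentration.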

HSC1 [2] = assay: as above
In short: as §1

HS-PSS [3] = assay: as above
In short: as §1

STS26T [4] = assay: as above
In short: as §1

ST8814 [5] = assay: as above
In short: as §1

HSC2 [6] = assay: relative IC50 (inflection point of fitted dose-response curve, CellTiter-Glo viability, 72 h; top asymptote may be below 50% inhibition); higher = less potent
In short: (§2)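 Viability of MPNST cell lines and primary human Schwann cells was read as CellTiter-Glo ATP luminescence after 72 h at 37 °C, 5% CO2, in 384-well plates seeded with 750–1000 cells per well. Each compound had been preprinted at five concentrations in 10-fold steps. Signals were scaled between vehicle and positive-control wells, duplicates averaged where present, and fitted with four-parameter logistic curves. Drug sensitivity score and relative IC50 (censored at the top concentration) come from those fits, and percent inhibition is taken at the top concentration.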

S462 = assay: as above
In short: as §2

HS-PSS [7] = assay: as above
In short: as §2

YST-1 = assay: as above
In short: as §2

HS-Sch-2 = assay: as above
In short: as §2

STS26T [8] = assay: as above
In short: as §2

ST8814 [9] = assay: as above
In short: as §2

HSC1 [10] = assay: as above
In short: as §2

| SMILES | relative IC50 (HSC2 [1]) [µM] | relative IC50 (HSC1 [2]) [µM] | relative IC50 (HS-PSS [3]) [µM] | relative IC50 (STS26T [4]) [µM] | relative IC50 (ST8814 [5]) [µM] | relative IC50 (HSC2 [6]) [µM] | relative IC50 (S462) [µM] | relative IC50 (HS-PSS [7]) [µM] | relative IC50 (YST-1) [µM] | relative IC50 (HS-Sch-2) [µM] | relative IC50 (STS26T [8]) [µM] | relative IC50 (ST8814 [9]) [µM] | relative IC50 (HSC1 [10]) [µM] |
| --- | --- | --- | --- | --- | --- | --- | --- | --- | --- | --- | --- | --- | --- |
| C=C(c1ccc(C(=O)O)cc1)c1cc2c(cc1C)C(C)(C)CCC2(C)C [Bexarotene] | > 10 | > 10 | > 10 | > 10 | > 10 | > 10 | > 10 | > 10 | > 10 | > 10 | > 10 | > 10 | – |
| CCN(CC)CCNC(=O)c1c(C)[nH]c(/C=C2\C(=O)Nc3ccc(F)cc32)c1C [Sunitinib] | > 1 | > 1 | > 1 | > 1 | > 1 | > 1 | – | – | > 1 | > 1 | > 1 | – | > 1 |
| COCC1(CO)C(=O)C2CCN1CC2 (centres undefined) [Prima-1 Met] | > 10 | > 10 | – | > 10 | > 10 | 2.14 | – | – | – | – | – | > 10 | 0.572 |
| CC1=NN(c2ccc(C(=O)O)cc2)C(=O)C1=Cc1ccc(-c2cc(C)c(C)cc2[N+](=O)[O-])o1 [C646] | 9.18 | > 25 | > 25 | > 25 | > 25 | > 25 | – | – | – | > 25 | > 25 | > 25 | > 25 |
| CCN1CCN(c2ccc(Nc3cc(N(C)C(=O)Nc4c(Cl)c(OC)cc(OC)c4Cl)ncn3)cc2)CC1 [NVP-BGJ398] | > 1 | > 1 | > 1 | > 1 | > 1 | > 1 | > 1 | > 1 | > 1 | > 1 | > 1 | – | > 1 |
| CCc1c(C(=O)C(N)=O)c2c(OCC(=O)O)cccc2n1Cc1ccccc1 [Varespladib] | > 10 | > 10 | > 10 | > 10 | > 10 | > 10 | – | > 10 | > 10 | > 10 | > 10 | > 10 | – |
| Nc1ncn([C@H]2C[C@H](O)[C@@H](CO)O2)c(=O)n1 [Decitabine] | > 10 | > 10 | > 10 | > 10 | > 10 | 2.26 | 0.273 | > 10 | > 10 | 0.782 | – | – | – |
| Cc1cc(Nc2nc(N[C@@H](C)c3ncc(F)cn3)ncc2Cl)[nH]n1 [AZD1480] | – | > 1 | > 1 | – | > 1 | – | – | – | – | > 1 | – | – | 0.193 |
| CCC/C=C/C=C/C(=O)O[C@H]1/C(=C/C(=O)OC)C[C@H]2C[C@H]([C@@H](C)O)OC(=O)C[C@H](O)C[C@@H]3C[C@H](OC(C)=O)C(C)(C)[C@](O)(C[C@@H]4C/C(=C/C(=O)OC)C[C@H](/C=C/C(C)(C)[C@]1(O)O2)O4)O3 [Bryostatin 1] | > 0.1 | > 0.1 | > 0.1 | > 0.1 | > 0.1 | > 0.1 | – | – | > 0.1 | 0.00041 | – | > 0.1 | > 0.1 |
| Cc1c(N)nc([C@H](CC(N)=O)NC[C@H](N)C(N)=O)nc1C(=O)N[C@H](C(=O)N[C@H](C)[C@@H](O)[C@H](C)C(=O)N[C@H](C(=O)NCCc1nc(-c2nc(C(=O)NCCC[S+](C)C)cs2)cs1)[C@@H](C)O)[C@@H](O[C@@H]1O[C@@H](CO)[C@@H](O)[C@H](O)[C@@H]1O[C@H]1O[C@H](CO)[C@@H](O)[C@H](OC(N)=O)[C@@H]1O)c1c[nH]cn1 [Bleomycin] | – | > 10 | – | 0.328 | 2.85 | 0.284 | 2.27 | 0.835 | 0.594 | 0.923 | 1.67 | 1.62 | 0.58 |
| COc1cc2/c(=N/c3ccc(Br)cc3F)nc[nH]c2cc1OCC1CCN(C)CC1 [Vandetanib] | > 1 | > 1 | – | > 1 | – | > 1 | > 1 | 0.0865 | > 1 | > 1 | – | > 1 | > 1 |
| O=C(c1cc(Cc2n[nH]c(=O)c3ccccc23)ccc1F)N1CCN(C(=O)C2CC2)CC1 [Olaparib] | – | > 10 | > 10 | 3.43 | 3.36 | 1.34 | 2 | – | 0.426 | 1.36 | 2.33 | 3.54 | 1.67 |
| Nc1ncnc2c1c(COc1cccc(Cl)c1)nn2C1CCOCC1 | > 10 | > 10 | > 10 | > 10 | > 10 | > 10 | > 10 | > 10 | > 10 | – | – | > 10 | – |
| CO[C@H]1C[C@@H]2CC[C@@H](C)[C@@](O)(O2)C(=O)C(=O)N2CCCC[C@H]2C(=O)O[C@H]([C@H](C)C[C@@H]2CC[C@@H](O)[C@H](OC)C2)CC(=O)[C@H](C)/C=C(\C)[C@@H](O)[C@@H](OC)C(=O)[C@H](C)C[C@H](C)/C=C/C=C/C=C/1C [Sirolimus] | > 0.1 | > 0.1 | > 0.1 | > 0.1 | > 0.1 | – | > 0.1 | 0.00371 | 0.00609 | 0.00638 | 0.0217 | – | – |
| CNC(=O)c1ccccc1Sc1ccc2c(/C=C/c3ccccn3)n[nH]c2c1 [Axitinib] | – | – | > 10 | 1.38 | – | 0.694 | 0.933 | 2.58 | 0.972 | 1.7 | 1.51 | 1.36 | 1.2 |
| Nc1nc(Cl)nc2c1ncn2[C@H]1C[C@H](O)[C@@H](CO)O1 [Cladribine] | 0.319 | 0.35 | – | – | – | 0.174 | – | 0.366 | 0.321 | 0.351 | 0.226 | – | 0.151 |
| CNC(=O)c1ccc(N2C(=S)N(c3ccc(C#N)c(C(F)(F)F)c3)C(=O)C2(C)C)cc1F [Enzalutamide] | > 10 | > 10 | > 10 | > 10 | > 10 | > 10 | > 10 | > 10 | > 10 | > 10 | > 10 | – | – |
| CC(C)C[C@@H](C(=O)N[C@H](C(=O)OC1CCCC1)c1ccccc1)[C@H](O)C(=O)NO [Tosedostat] | > 10 | > 10 | > 10 | 0.0253 | – | 0.0761 | 0.424 | 3.27 | 0.222 | 0.258 | 0.0814 | 1.24 | 0.138 |
| COc1nc(N)nc2c1ncn2[C@@H]1O[C@H](CO)[C@@H](O)[C@@H]1O [Nelarabine] | – | > 10 | > 10 | > 10 | > 10 | > 10 | > 10 | > 10 | > 10 | > 10 | > 10 | > 10 | > 10 |
| CNC(=O)c1ccc(N2C(=S)N(c3ccc(C#N)c(C(F)(F)F)c3)C(=O)C23CCC3)cc1F [RD162] | > 10 | > 10 | > 10 | > 10 | > 10 | > 10 | > 10 | > 10 | > 10 | > 10 | > 10 | – | – |
| Nc1cccc2c1C(=O)N(C1CCC(=O)NC1=O)C2=O (centres undefined) [Pomalidomide] | > 10 | > 10 | > 10 | > 10 | > 10 | > 10 | – | > 10 | > 10 | > 10 | > 10 | > 10 | > 10 |
| CC1=C(/C=C/C(C)=C/C=C/C(C)=C/C(=O)O)C(C)(C)CCC1 [Tretinoin] | > 10 | > 10 | > 10 | > 10 | > 10 | – | > 10 | > 10 | > 10 | > 10 | – | – | 0.361 |
| Cc1c(C(=O)Nc2ccc(N3C[C@@H](C)O[C@@H](C)C3)nc2)cccc1-c1ccc(OC(F)(F)F)cc1 [Erismodegib] | – | – | – | > 10 | > 10 | > 10 | > 10 | – | – | – | – | > 10 | > 10 |
| COc1ccc(C2=N[C@@H](c3ccc(Cl)cc3)[C@@H](c3ccc(Cl)cc3)N2C(=O)N2CCNC(=O)C2)c(OC(C)C)c1 [Nutlin-3] | > 10 | > 10 | > 10 | > 10 | – | 1.22 | > 10 | – | 1.41 | > 10 | – | 2.05 | 1.49 |
| Cc1ccc(Nc2nccc(N(C)c3ccc4c(C)n(C)nc4c3)n2)cc1S(N)(=O)=O [Pazopanib] | > 10 | > 10 | > 10 | > 10 | > 10 | – | > 10 | 0.605 | > 10 | – | > 10 | > 10 | – |
| COc1cc(CCc2cc(NC(=O)c3ccc(N4CC(C)NC(C)C4)cc3)n[nH]2)cc(OC)c1 (centres undefined) [AZD4547] | > 1 | > 1 | > 1 | > 1 | > 1 | – | – | > 1 | > 1 | 0.253 | > 1 | > 1 | – |
| C[C@@H](Oc1cc(-c2cnn(C3CCNCC3)c2)cnc1N)c1c(Cl)ccc(F)c1Cl [Crizotinib] | > 1 | > 1 | > 1 | > 1 | > 1 | – | – | 0.367 | 0.393 | – | > 1 | > 1 | – |
| CN1CCC(COc2cnc(-c3cccc(Cn4nc(-c5cccc(C#N)c5)ccc4=O)c3)nc2)CC1 | > 1 | > 1 | > 1 | – | > 1 | > 1 | – | > 1 | > 1 | > 1 | – | > 1 | > 1 |
| COc1cc2c(Oc3ccc4[nH]c(C)cc4c3F)ncnc2cc1OCCCN1CCCC1 [Cediranib] | – | > 1 | > 1 | > 1 | – | > 1 | > 1 | – | > 1 | > 1 | > 1 | > 1 | – |
